Data as given in PubChem BioAssay (NCI).
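Briefly, cells in 96-well plates were exposed to five compound concentrations for 48 h, and endpoints were estimated by linear interpolation. GI50 marks 50% less growth. TGI: total growth inhibition.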

Key:
Assay in all cases: NCI anticancer screen, dose series, 48 h
[1] = test system: UACC-257 melanoma
[2] = test system: HCT-15 colon
[3] = test system: A498 renal
[4] = test system: LOX IMVI melanoma
[5] = test system: SF-539 CNS
[6] = test system: MOLT-4 leukemia
[7] = test system: PC-3 prostate
[8] = test system: A549 NSCLC
[9] = test system: SR leukemia
[10] = test system: KM12 colon
[11] = test system: MDA-MB-435
[12] = test system: U251 CNS
[13] = test system: SK-MEL-2 melanoma
[14] = test system: SN12C renal
[15] = test system: NCI-H522 lung
[16] = test system: CAKI-1 renal
[17] = test system: K-562 leukemia
[18] = test system: RPMI-8226 leukemia
[19] = test system: MDA-MB-231 breast
[20] = test system: HL-60(TB) leukemia
[21] = test system: NCI/ADR-RES ovarian
[22] = test system: SK-OV-3 ovarian
[23] = test system: HCC-2998 colon
[24] = test system: OVCAR-4 ovarian
[25] = test system: M14 melanoma
[26] = test system: IGROV1 ovarian
[27] = test system: UACC-62 melanoma
[28] = test system: UO-31 renal
[29] = test system: SW-620 colon
[30] = test system: COLO 205 colon
[31] = test system: NCI-H226 lung
[32] = test system: HCT-116 colon
[33] = test system: HS 578T breast
[34] = test system: HOP-62 NSCLC
[35] = test system: TK-10 renal
[36] = test system: RXF 393 renal
[37] = test system: 786-0 renal
[38] = test system: NCI-H23 lung
[39] = test system: SK-MEL-28 melanoma
[40] = test system: MCF7 breast
[41] = test system: SF-268 CNS
[42] = test system: SF-295 CNS
[43] = test system: ACHN renal
[44] = test system: SK-MEL-5 melanoma
[45] = test system: NCI-H460 lung
[46] = test system: OVCAR-8 ovarian
[47] = test system: BT-549 breast
[48] = test system: MALME-3M melanoma
[49] = test system: SNB-19 CNS
[50] = test system: CCRF-CEM leukemia
[51] = test system: T-47D breast
[52] = test system: OVCAR-5 ovarian
[53] = test system: SNB-75 CNS
[54] = test system: OVCAR-3 ovarian
[55] = test system: HOP-92 NSCLC
[56] = test system: DU-145 prostate
[57] = test system: EKVX NSCLC
[58] = test system: HT29 colon

SMILES: N#C/C(=C\c1ccc(Br)cc1)n1nnc2ccc(F)cc21
- GI50 [1]: 1420 nM
- TGI [1]: 4250 nM
- GI50 [2]: 353 nM
- TGI [2]: 1780 nM
- GI50 [3]: 1700 nM
- TGI [3]: 3540 nM
- GI50 [4]: 347 nM
- TGI [4]: 1280 nM
- GI50 [5]: 1260 nM
- TGI [5]: 2940 nM
- GI50 [6]: 2180 nM
- TGI [6]: > 100000 nM
- GI50 [7]: 953 nM
- TGI [7]: 2890 nM
- GI50 [8]: 2010 nM
- TGI [8]: 72400 nM
- GI50 [9]: 348 nM
- TGI [9]: > 100000 nM
- GI50 [10]: 1300 nM
- TGI [10]: 4040 nM
- GI50 [11]: 190 nM
- TGI [11]: 403 nM
- GI50 [12]: 1640 nM
- TGI [12]: 3340 nM
- GI50 [13]: 1560 nM
- TGI [13]: 4980 nM
- GI50 [14]: 1720 nM
- TGI [14]: 4370 nM
- GI50 [15]: 227 nM
- TGI [15]: 858 nM
- GI50 [16]: 293 nM
- TGI [16]: 1350 nM
- GI50 [17]: 332 nM
- TGI [17]: > 100000 nM
- GI50 [18]: 841 nM
- TGI [18]: 6960 nM
- GI50 [19]: 1870 nM
- TGI [19]: 4800 nM
- GI50 [20]: 702 nM
- TGI [20]: 5230 nM
- GI50 [21]: 340 nM
- TGI [21]: 3420 nM
- GI50 [22]: 4850 nM
- TGI [22]: > 100000 nM
- GI50 [23]: 1430 nM
- TGI [23]: 2890 nM
- GI50 [24]: 939 nM
- TGI [24]: 5310 nM
- GI50 [25]: 385 nM
- TGI [25]: 1690 nM
- GI50 [26]: 569 nM
- TGI [26]: 2250 nM
- GI50 [27]: 713 nM
- TGI [27]: 2710 nM
- GI50 [28]: 1020 nM
- TGI [28]: 2200 nM
- GI50 [29]: 447 nM
- TGI [29]: 2340 nM
- GI50 [30]: 1540 nM
- TGI [30]: 4000 nM
- GI50 [31]: 1670 nM
- TGI [31]: 4030 nM
- GI50 [32]: 741 nM
- TGI [32]: 2350 nM
- GI50 [33]: 2710 nM
- TGI [33]: 20400 nM
- GI50 [34]: 2330 nM
- TGI [34]: 7520 nM
- GI50 [35]: 2260 nM
- TGI [35]: 5610 nM
- GI50 [36]: 465 nM
- TGI [36]: 1860 nM
- GI50 [37]: 846 nM
- TGI [37]: 2600 nM
- GI50 [38]: 1420 nM
- TGI [38]: 3340 nM
- GI50 [39]: 1290 nM
- TGI [39]: 3250 nM
- GI50 [40]: 372 nM
- TGI [40]: 2850 nM
- GI50 [41]: 1840 nM
- TGI [41]: 4330 nM
- GI50 [42]: 2110 nM
- TGI [42]: 5070 nM
- GI50 [43]: 671 nM
- TGI [43]: 2060 nM
- GI50 [44]: 1570 nM
- TGI [44]: 2940 nM
- GI50 [45]: 2260 nM
- TGI [45]: 5330 nM
- GI50 [46]: 1840 nM
- TGI [46]: 18200 nM
- GI50 [47]: 671 nM
- TGI [47]: 3630 nM
- GI50 [48]: 1440 nM
- TGI [48]: 4680 nM
- GI50 [49]: 1660 nM
- TGI [49]: 3160 nM
- GI50 [50]: 395 nM
- TGI [50]: > 100000 nM
- GI50 [51]: 447 nM
- TGI [51]: 6110 nM
- GI50 [52]: 1870 nM
- TGI [52]: 3990 nM
- TGI [53]: 2240 nM
- GI50 [54]: 373 nM
- TGI [54]: 1490 nM

SMILES: C=C1C(=O)O[C@H]2[C@H]1CC/C(Cn1cc(-c3ccccc3C(F)(F)F)nn1)=C\CC[C@@]1(C)O[C@@H]21
- GI50 [2]: 1050 nM
- TGI [2]: 2430 nM
- GI50 [3]: 3860 nM
- TGI [3]: 15900 nM
- GI50 [4]: 1110 nM
- TGI [4]: 2350 nM
- GI50 [55]: 1480 nM
- TGI [55]: 3470 nM
- GI50 [5]: 1760 nM
- TGI [5]: 3560 nM
- GI50 [6]: 3030 nM
- TGI [6]: 10900 nM
- GI50 [7]: 4320 nM
- TGI [7]: 15300 nM
- GI50 [8]: 7230 nM
- TGI [8]: 21800 nM
- GI50 [10]: 5880 nM
- TGI [10]: 19200 nM
- GI50 [11]: 2180 nM
- TGI [11]: 7110 nM
- GI50 [12]: 1830 nM
- TGI [12]: 3830 nM
- GI50 [56]: 1420 nM
- TGI [56]: 2780 nM
- GI50 [13]: 2450 nM
- TGI [13]: 5780 nM
- GI50 [14]: 2480 nM
- TGI [14]: 7460 nM
- GI50 [57]: 2320 nM
- TGI [57]: 7120 nM
- GI50 [15]: 1380 nM
- TGI [15]: 3130 nM
- GI50 [16]: 1310 nM
- TGI [16]: 2630 nM
- GI50 [17]: 2400 nM
- TGI [17]: 13100 nM
- GI50 [18]: 1870 nM
- TGI [18]: 8490 nM
- GI50 [19]: 1640 nM
- TGI [19]: 3750 nM
- GI50 [20]: 2580 nM
- TGI [20]: 10100 nM
- GI50 [21]: 2990 nM
- TGI [21]: 15100 nM
- GI50 [22]: 17300 nM
- TGI [22]: 31200 nM
- GI50 [23]: 1850 nM
- TGI [23]: 3470 nM
- GI50 [24]: 2770 nM
- TGI [24]: 9400 nM
- GI50 [25]: 2150 nM
- TGI [25]: 5130 nM
- GI50 [26]: 1810 nM
- TGI [26]: 3860 nM
- GI50 [28]: 1230 nM
- TGI [28]: 2610 nM
- GI50 [29]: 1240 nM
- TGI [29]: 3330 nM
- GI50 [30]: 1980 nM
- TGI [30]: 3810 nM
- GI50 [31]: 1730 nM
- TGI [31]: 4690 nM
- GI50 [32]: 1260 nM
- TGI [32]: 2740 nM
- GI50 [33]: 3570 nM
- TGI [33]: 26700 nM
- GI50 [34]: 4720 nM
- TGI [34]: 18700 nM
- GI50 [35]: 1710 nM
- TGI [35]: 3200 nM
- GI50 [36]: 1070 nM
- TGI [36]: 2320 nM
- GI50 [37]: 1840 nM
- TGI [37]: 3920 nM
- GI50 [38]: 1750 nM
- TGI [38]: 3570 nM
- GI50 [39]: 1750 nM
- TGI [39]: 3470 nM
- GI50 [41]: 2090 nM
- TGI [41]: 5250 nM
- GI50 [42]: 10300 nM
- TGI [42]: 22600 nM
- GI50 [43]: 1450 nM
- TGI [43]: 2930 nM
- GI50 [44]: 1720 nM
- TGI [44]: 3440 nM
- GI50 [45]: 3970 nM
- TGI [45]: 17700 nM
- GI50 [46]: 2230 nM
- TGI [46]: 6970 nM
- GI50 [47]: 2400 nM
- TGI [47]: 8280 nM
- GI50 [48]: 1700 nM
- TGI [48]: 3560 nM
- GI50 [49]: 10800 nM
- TGI [49]: 25800 nM
- GI50 [50]: 767 nM
- TGI [50]: 10100 nM
- GI50 [58]: 1790 nM
- TGI [58]: 3750 nM
- GI50 [51]: 1700 nM
- TGI [51]: 4710 nM
- GI50 [52]: 2460 nM
- TGI [52]: 8950 nM
- GI50 [53]: 2970 nM
- TGI [53]: 17500 nM
- GI50 [54]: 1040 nM
- TGI [54]: 2330 nM
